Drawing on article PMC3053071 (Bioorganic & medicinal chemistry letters, 2011), this text covers IC50 for 1 compound.

Where only a bound is given, the exact number is not on record here.

A short description of this data set: Cell toxicity. It is filed as cell-based.

For orientation: IC50 means the concentration needed to halve the response being measured. Low readings indicate greater potency, high ones weaker potency. Turning to `C=C(C)[C@@H]1CC[C@]2(C(=O)O)CC[C@]3(C)[C@H](CC[C@@H]4[C@@]5(C)CC[C@H](OC(=O)CC(C)(C)C(=O)O)C(C)(C)[C@@H]5CC[C@]43C)[C@@H]12` [Bevirimat, 3-O-(3′,3′-dimethylsuccinyl)betulinic acid], the IC50 is over 300 µM.
